Data: PMC7764606 (Cancers, 2020)
Like-named read-outs stand apart in the source and are kept apart here.

Experiments:
recombinant AKR1C3 = molecular target: T1, recombinant AKR1C3 (Homo sapiens, UniProt P42330); assay: Reduction of Dau by recombinant AKR1C3 (UHPLC detection of Dau-ol); format: biochemical; conditions: for reduction of AKR1C3 activity (Dau reduction): Dau 500 µM, relative to DMSO; for Ki: read-out: Ki^app (Morrison equation for tight-binding inhibitors)
T1 construct: made in house; host or cells: Escherichia coli
T1 sequence (P42330 1-323): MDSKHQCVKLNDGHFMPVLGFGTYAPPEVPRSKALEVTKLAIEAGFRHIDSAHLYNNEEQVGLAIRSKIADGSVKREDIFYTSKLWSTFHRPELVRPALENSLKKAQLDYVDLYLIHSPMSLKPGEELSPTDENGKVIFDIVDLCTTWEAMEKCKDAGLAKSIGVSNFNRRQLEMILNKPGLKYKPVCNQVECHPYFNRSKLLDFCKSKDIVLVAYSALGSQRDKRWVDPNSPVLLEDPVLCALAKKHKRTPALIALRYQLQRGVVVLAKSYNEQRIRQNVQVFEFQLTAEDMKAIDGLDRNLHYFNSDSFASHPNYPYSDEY
Method: (§1) Human recombinant CREs (CBR1, AKR1A1, 1B1, 1B10, 7A2, and 1C3) were produced by an Escherichia coli expression system as per methods described previously. For the inhibitory assay, each recombinant enzyme, CBR1 (1 µg), AKR1A1 (1 µg), AKR1B1 (5 µg), AKR1B10 (5 µg), AKR7A2 (3 µg), or AKR1C3 (1.5 µg) was incubated with BTK inhibitors at different concentrations (10 and 50 µM) and the substrate Dau (500 µM). For analysis using the Lineweaver-Burk plot, 1.5 µg of recombinant AKR1C3 was incubated with DMSO or BTK inhibitors (1, 5, and 10 µM) and Dau (200, 400, 600, 800, 1000, and 2000 µM). […] The incubations and further metabolite detection were further performed by using ultra-high-performance liquid chromatography (UHPLC) as per methods described previously.

recombinant AKR1B10 = system: T2, recombinant AKR1B10; assay: Reduction of Dau by recombinant AKR1B10 (UHPLC detection of Dau-ol); format: biochemical, Human; conditions: Dau 500 µM, relative to DMSO
T2 construct: made in house; host or cells: Escherichia coli
Method: as §1

[1] = system: AKR1C3 expression in A549 cells; assay: AKR1C3 protein levels in A549 cells by western blotting; format: cell-based, human; conditions: 1, 5 and 10 µM, 72 h, western blot relative to β-actin
Method: A549 cells were incubated with DMSO or BTK inhibitors (1, 5, and 10 µM) for 72 h, and then total protein was extracted for analysis of AKR1C3 expression by western blotting (WB) as per methods described previously. A representative WB is shown for IBR (A) and ACA (B) incubations, and bars represent AKR1C3 protein levels as determined by densitometry relative to β-actin (n = 3, mean ± SD). Uncropped images from WB are available in Figure S1 in the Supplementary Materials. On the other hand, HCT116-EV and HCT116-C3 cells were treated with increasing concentrations of IBR (C) and ACA (D) for 72 h, and their viability was assessed by MTT assay. Graphs represent a comparison of the dose-response curves for percentages of cell viability in each cell line (n = 6, mean ± SD).

reduction of AKR1C3 activity (Dau reduction) (recombinant AKR1C3; 10 µM BTK inhibitor): 89.55% ± 4%
reduction of AKR1C3 activity (Dau reduction) (recombinant AKR1C3; 50 µM BTK inhibitor): 96.28% ± 1.58%
Ki (recombinant AKR1C3; AKR1C3 0.005 mg/mL (0.135 μM)): 451 nM
Ki (recombinant AKR1C3; AKR1C3 0.015 mg/mL (0.405 μM)): 521 nM
Ki (recombinant AKR1C3; AKR1C3 0.030 mg/mL (0.811 μM)): 566 nM
mode of inhibition (Lineweaver-Burk plot) (recombinant AKR1C3; recombinant AKR1C3 with increasing Dau): non-competitive/mixed
Structure (SMILES): CC#CC(=O)N1CCC[C@H]1c1nc(-c2ccc(C(=O)Nc3ccccn3)cc2)c2c(N)nccn12 [Acalabrutinib, acalabrutinib]
inhibition of AKR1B10 activity (Dau reduction) (recombinant AKR1B10; 10 µM BTK inhibitor): did not show significant inhibition
inhibition of AKR1B10 activity (Dau reduction) (recombinant AKR1B10; 50 µM BTK inhibitor): 9.36% ± 2.53%
effect on expression (protein levels) of AKR1C3 [1]: negligible or absence of effects
